Legend:
[1] = system: spinal cord injury (SCI) rat model; experiment: Spinal cord injury rat model: lesion volume; assay type: in vivo; details: for Percent change in Lesion volume: reduction vs Saline group (group 1), 0.5 ml/kg IV
Experimental: Animals: Female Sprague-Dawley rats (Harlan Sprague-Dawley, Indianapolis, Ind.), weighing 200-225 grams each were given free access to food and water before the experiment. The animals were anesthetized with ketamine (80 mg/kg) and xylazine (10 mg/kg). Brain temperatures were monitored using a rectal thermometer. The animals' body temperature was maintained at 37° C. by using a water jacketed heating pad. Brain temperature was monitored for 1 hour prior to injury to 6 hours following injury and was recorded at 30-minute intervals.
Experimental Groups. The spinal cord injury model utilized in the studies is described in detail (Rabchevsky et al, 2002; J. Neurosci. Res. 68:7). Young adult female Sprague-Dawley rats received a spinal cord contusion using the Precision Scientific Inc. pneumatic impactor. Female animals were used due to the paralysis associated with the injury and ease of voiding the bladder. Prior to surgery, rats were assigned to different treatment groups based on a randomized block design so that on any given surgery day all treatment groups were included. The rats were anesthetized with ketamine (80 mg/kg) and xylazine (10 mg/kg) before laminectomy was performed at the 10th thoracic vertebra (T10). The vertebral column was stabilized with angled clamps on the upper thoracic (T8) and lumber […] levels and the impactor with a tip diameter of 2 mm was delivered at approximately 50 kdynes onto the exposed, intact dura overlying the dorsal spinal cord. The impactor was immediately removed, the wound irrigated with saline and the muscle and skin openings sutured together.
Drug Administration. Compound was administered in the following paradigm: intravenous injection of saline or drug solutions 15 minutes following injury at 0.5 ml/kg (1×10^4, 5×10^4, and 10×10^4 TCDO). Drug was administered once per day starting at the indicated times and continued for 5 days. The saline control group was run in parallel with the drug-treated groups.
Histology. At the end of the study, the animals were killed and the spinal cord fixed in 4% paraformaldehyde. For analysis, 20 μm cryosections were stained for eriochrome cyanine (EC) to differentiate between white matter and cell bodies to calculate the amount of spared tissue through the lesion site. Immunocytochemical analysis was performed on the tissue. Tissue sparing was determined by computed image analysis from 10 evenly spaced sections through the injured T10 segment. The volume of necrotic tissue divided by the total cross-sectional volume is converted to a percentage and subtracted from 100%. Sections were taken for immunocytochemical analysis for macrophage infiltration
Each animal received induction of 5 i.v. injections for a total of 5×0.5 ml/kg of body weight. […]

SCI rat study: mortality = assay type: in vivo; details: 0.5 ml/kg IV once daily 5 days, 6 weeks
Description: Mortality: There were no deaths in this study.

[2] = system: spinal cord injury (SCI) rat model; experiment: Example 3: TCDO in the spinal cord injury rat model (lesion volume, BBB); assay type: in vivo
Experimental: Tetrachlorodecaoxygen (TCDO) was tested for efficacy in the spinal cord injury (SCI) rat model. In order to determine the efficacy of TCDO, rats were subjected to spinal cord injury and 6 weeks of recovery. Rats were injected intravenously with saline or TCDO solutions. Rats received 1 injection regiment: administered 15 minutes after injury. Animals were injected once daily for 5 days following the injury. Treated rats were examined after 1, 2, 3, 4, 5, and 6 weeks for drug behavioral effect. The animals were examined for changes in lesion volume (LV) and Basso, Beattie and Bresnahan (BBB) locomotor test. […] However, by 7 days, TCDO was not effective in reducing the LV or behavioral deficits.

non-healing wounds = experiment: Example 4: topical TCDO versus saline in 271 patients with non-healing wounds; assay type: in vivo, human
Experimental: TCDO was investigated for its effects on non-healing wounds. In the study, 271 patients with non-healing wounds which included post-operative wounds, venous ulcers, arterial ulcers, post traumatic wounds and decubitus ulcers. The patients received either 5 mL of TCDO or saline twice daily applied by compress or directly to the wound for 21 days. […] Irrespective of wound types, wound surface decreased 2 to 4 times more quickly with TCDO treatment compared to saline. […] Adverse events were reported by 7% and 12% of patients treated with saline and TCDO respectively, the most frequent was slight pain.

diabetic foot ulcer = experiment: Example 6: randomized controlled trial of TCDO as adjunct in diabetic foot ulcer; assay type: in vivo, human
Experimental: This randomized controlled trial was undertaken to evaluate the effect of TCDO as an adjunct to the standard treatment of diabetic foot ulcer. A total of 40 participants were randomized into 2 groups of 20. One group underwent standard therapy combined with infusions of TCDO, and 1 underwent standard therapy combined with placebo. The wound severity scores, which vary with the severity of infection and inflammation, necrotic and granulation tissues, and wound depth and area, were assessed weekly for 9 weeks.

[3] = 4 cycles of 0.5 mL TCDO/kg body weight per day
Experimental: Patients were then given 4 cycles of WF10 with the daily dose ranging from 0.5 mL/kg body weight to 1.5 mL/kg body weight.

[4] = system: lipopolysaccharide (LPS) from E coli 055B5; details: TCDO 0.2 ml/kg iv twice during the day before iv LPS; without TCDO 346; cited from earlier work
E. coli = details: phagocytosis assay; cited from earlier work
[5] = system: monocytes and large granular lymphocytes; details: rats, cited from earlier work
[6] = system: autoimmune disease with skin manifestations; details: cited from earlier work
wounds [7] = details: topical; superior to PVP-iodine treatment; cited from earlier work
wounds [8] = details: applied topically; cited from earlier work
HIV = details: cited from earlier work
[9] = system: T-lymphoma cell line ACH2; details: cited from earlier work
[10] = system: monocytes, macrophages and lymphocytes; details: in vitro; cited from earlier work
[11] = system: macrophages infiltrating a skin blister; details: human wound-healing model; cited from earlier work
[12] = system: granulocytes, PBMCs, LGLs, erythropoiesis; details: rats, cited from earlier work
hematopoietic stem cells = details: mice receiving sublethal doses of irradiation; cited from earlier work
[13] = system: radiation-induced, chemical induced and metastatic malignant and benign tumors; details: cited from earlier work
[14] = system: humoral and cellular immune responses; details: cited from earlier work
activated microglia = details: Kindy et al.; cited from earlier work
[15] = target: gp120 envelope glycoprotein of HIV-1 (Human immunodeficiency virus type 1 group M subtype B, UniProt P04578); details: pre-incubation with TCDO; cited from earlier work
[16] = i.v. once daily 5 days, initiated 15 minutes following injury
[17] = after 9 weeks, subgroup analysis, p<0.01 vs placebo
[18] = one patient, four cycles at 0.5 mL/kg body weight
[19] = patients, two cycles at 0.5 mL/kg body weight

Q: Which “Lesion volume (mm^3)” value ([1]; rat SCI, 1 × 10^4 units TCDO, 0.5 ml/kg IV once daily 5 days from 15 min after injury, day 42, mean ± SD) does the source give for Tetrachlorodecaoxygen [TCDO] here?
A: did not show a significant reduction

Q: What about the “Percent change in Lesion volume” value ([1]; 1 × 10^4 units TCDO) of the same substance?
A: 25%

Q: What about the “Percent change in Lesion volume” value ([1]; 5 × 10^4 units TCDO) of the same substance?
A: 50%

Q: And the “Percent change in Lesion volume” value ([1]; 10 × 10^4 units TCDO)?
A: 65%

Q: And the Mortality (SCI rat study: mortality)?
A: no deaths

Q: What about the “Reduction of LV or behavioral deficits” value ([2]; by 7 days) of the same substance?
A: not effective

Q: What about the “Decrease in lesion volume (LV)” value [2, 16] of the same substance?
A: 49%

Q: And the “Improvement of BBB score” value [2, 16]?
A: 158%

Q: And the “Wound cleaning and formation of new tissue versus saline” value (non-healing wounds; 271 patients, 5 mL twice daily topically for 21 days)?
A: significantly superior to saline

Q: And the “Adverse events, patients reporting” value (non-healing wounds; topical, 21 days, most frequent was slight pain)?
A: 12%

Q: What about the “Wound depth and wound area versus placebo” value (diabetic foot ulcer; after 9 weeks) of the same substance?
A: not statistically significant

Q: And the Wound severity score (diabetic foot ulcer; after 9 weeks, standard therapy plus TCDO infusions, n=20, p<0.05 vs placebo)?
A: 1.8±1.9

Q: What about the “Infection and inflammation score” value (diabetic foot ulcer; [17]) of the same substance?
A: 0.0±0.0

Q: What about the Necrotic tissue score (diabetic foot ulcer; [17]) of the same substance?
A: 0.0±0.0

Q: And the Granulation tissue score (diabetic foot ulcer; after 9 weeks, subgroup analysis, p<0.05 vs placebo)?
A: 0.1±0.3

Q: What about the Severe adverse events (diabetic foot ulcer; throughout the observation period) of the same substance?
A: No severe adverse events were observed

Q: What about the Hemolysis [3] of the same substance?
A: no clinically relevant hemolysis

Q: What about the “LD50 value of LPS after TCDO” value [4] of the same substance?
A: 518 mg

Q: And the “TCDO dose to which the concentration of maximal ingestion of E. coli corresponds” value (E. coli)?
A: 0.5 mL/kg-body weight

Q: What about the “Time for monocyte level to return to normal value after discontinuation” value ([5]; after 90 days of dosing) of the same substance?
A: 30 days

Q: And the “Blood levels of monocytes and large granular lymphocytes” value ([5]; daily for 90 days, 0.33 to 2.0 mL/kg body weight, within four days)?
A: greater than three times baseline value

Q: And the “Monocyte level elevated over baseline” value ([5]; sixteen days after discontinuation)?
A: approximately 50%

Q: And the “Treatment outcome, HIV associated psoriasis” value [6, 18]?
A: successfully treated

Q: And the “Treatment outcome, eczema” value [6, 18]?
A: successfully treated

Q: And the “Treatment outcome, pustular psoriasis” value ([6]; one patient, two cycles at 0.5 mL/kg body weight)?
A: successfully treated

Q: And the “Treatment outcome, chronic actinic dermatitis” value [6, 19]?
A: successfully treated

Q: What about the “Treatment outcome, pemphigus vulgaris” value [6, 19] of the same substance?
A: successfully treated

Q: And the “Reduction in wound surface” value (wounds [7])?
A: 74.9%

Q: And the “Effects of cortisone on wounds” value (wounds [8])?
A: reverse the effects of cortisone on wounds

Q: What about the “Infectivity of HIV particles” value (HIV; HIV stocks supplemented with TCDO, concentration dependent) of the same substance?
A: markedly decreased the infectivity of HIV particles

Q: What about the Anti-HIV properties (HIV; in vitro) of the same substance?
A: displayed anti-HIV properties

Q: And the “Replication of HIV” value (HIV; persistently infected lymphocytic and monocytic cell lines, peripheral blood mononuclear cells)?
A: did not affect the replication of HIV

Q: What about the “Delayed virus spread of HIV in presence of suboptimal concentrations of zidovudine” value (HIV; simultaneous addition of TCDO) of the same substance?
A: could significantly be blocked

Q: And the “Induction of chromosomally integrated HIV-1 provirus” value [9]?
A: failed to induce

Q: What about the Antigen presentation [10] of the same substance?
A: decrease antigen presentation

Q: What about the “Macrophage TNF-α expression” value [10] of the same substance?
A: decrease macrophage tumor necrosis factor (TNF)-α expression

Q: What about the Macrophage-fibroblast cooperation [10] of the same substance?
A: enhance macrophage-fibroblast cooperation

Q: And the “Oxidative burst in monocytes” value [10]?
A: stimulate an oxidative burst in monocytes

Q: What about the Phagocytosis [10] of the same substance?
A: increase phagocytosis

Q: What about the “Number of macrophages infiltrating a skin blister” value [11] of the same substance?
A: increased the number of macrophages infiltrating a skin blister

Q: What about the Erythropoiesis ([12]; after total body X-irradiation) of the same substance?
A: stimulated erythropoiesis

Q: What about the “Proportion of granulocytes, PBMCs and LGLs” value [12] of the same substance?
A: increased the proportion of granulocytes, peripheral blood monocytes (PBMCs) and large granular lymphocytes (LGLs)

Q: What about the “Regeneration of hematopoietic stem cells” value (hematopoietic stem cells) of the same substance?
A: stimulated regeneration of hematopoietic stem cells

Q: And the Antitumor effects [13]?
A: displayed direct antitumor effects

Q: What about the Humoral immune response ([14]; Jerne plaque test) of the same substance?
A: increased

Q: And the Cellular immune response ([14]; footpad swelling test)?
A: increased

Q: What about the “Proportions of T-helper and T suppressor/cytotoxic cells” value ([14]; spleen and thymus) of the same substance?
A: altered proportions of T-helper and T suppressor/cytotoxic cells

Q: And the “Production of proinflammatory cytokines and superoxide anion” value (activated microglia)?
A: suppresses the production of proinflammatory cytokines and superoxide anion

Q: What about the “Binding of gp120 of HIV-1 to cells” value [15] of the same substance?
A: is blocked
